The source made the active and inactive calls.
Key:
[1] = target: Protein Wnt-3a (Mus musculus, UniProt P27467); test: antagonism of Wnt3a pathway luciferase reporter – Wnt-LIGHT cells, luminescence, selectivity assay for Gli-SUFU antagonist project, dose response (AID 651570); type: functional; conditions: read-out: IC50_Mean;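 note: Wnt-LIGHT reporter cells stimulated with conditioned medium from Wnt3a-producing cells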
[2] = target: T1, Mannose-6-phosphate isomerase (Homo sapiens, UniProt P34949); test: phosphomannose isomerase inhibition – biochemical, fluorescence intensity, confirmation (AID 1535)
T1 sequence (P34949 whole entry): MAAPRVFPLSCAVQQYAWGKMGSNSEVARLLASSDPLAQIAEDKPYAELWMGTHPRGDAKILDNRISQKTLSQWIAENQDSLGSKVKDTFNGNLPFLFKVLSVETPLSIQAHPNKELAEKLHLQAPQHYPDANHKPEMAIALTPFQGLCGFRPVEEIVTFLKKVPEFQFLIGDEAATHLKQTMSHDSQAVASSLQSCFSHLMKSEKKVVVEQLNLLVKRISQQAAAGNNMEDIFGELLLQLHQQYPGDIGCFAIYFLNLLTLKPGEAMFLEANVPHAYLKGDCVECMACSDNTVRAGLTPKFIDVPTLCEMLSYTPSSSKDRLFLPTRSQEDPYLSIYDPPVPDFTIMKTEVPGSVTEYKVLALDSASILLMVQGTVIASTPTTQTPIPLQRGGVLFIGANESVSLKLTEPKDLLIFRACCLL

[3] = target: T2, Phosphomannomutase 2 (Homo sapiens, UniProt O15305); test: Counter screen SAR assay for PMM2 inhibitors via a fluorescence intensity assay. [Related pubchem assays (depositor defined):AID1545, AID1574]
T2 sequence (O15305 whole entry): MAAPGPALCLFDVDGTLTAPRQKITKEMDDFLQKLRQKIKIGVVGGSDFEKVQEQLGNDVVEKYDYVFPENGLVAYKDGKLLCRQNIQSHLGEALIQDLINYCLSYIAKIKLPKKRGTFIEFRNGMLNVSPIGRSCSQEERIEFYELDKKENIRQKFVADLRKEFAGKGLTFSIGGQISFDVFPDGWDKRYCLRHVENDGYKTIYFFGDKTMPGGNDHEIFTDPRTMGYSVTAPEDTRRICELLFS

[4] = DRD fibroblast viability loss – cell-based, non-viral oncogenic, luminescence, dose response (AID 1934); type: functional; conditions: Homo sapiens
[5] = test system: BJ; test: BJ-TERT fibroblast viability loss – cell-based, RAS-independent, luminescence, dose response (AID 1933); type: functional; conditions: Homo sapiens
[6] = test system: BJ; test: cells; type: functional, cell-based; conditions: Homo sapiens
[7] = test system: BJ; test: BJ-TERT-LT-ST fibroblast viability loss – cell-based, RAS-independent, luminescence, dose response (AID 1935); type: functional; conditions: Homo sapiens;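 note: BJ fibroblasts immortalized with TERT plus LT and ST oncogenes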
[8] = test system: BJ; test: growth inhibition of engineered Ras-driven BJ cells – cell-based, alamar blue fluorescence, cherrypicked samples, dose response (AID 2631); type: functional; conditions: Homo sapiens;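 note: confirmatory dose-response assay in RAS-dependent BJ fibroblasts engineered with TERT, LT and ST, with cytotoxicity read by fluorescence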
[9] = target: Cytochrome P450 2C9 (Homo sapiens, UniProt P11712)
Chain of Cytochrome P450 2C9 (P11712 whole entry): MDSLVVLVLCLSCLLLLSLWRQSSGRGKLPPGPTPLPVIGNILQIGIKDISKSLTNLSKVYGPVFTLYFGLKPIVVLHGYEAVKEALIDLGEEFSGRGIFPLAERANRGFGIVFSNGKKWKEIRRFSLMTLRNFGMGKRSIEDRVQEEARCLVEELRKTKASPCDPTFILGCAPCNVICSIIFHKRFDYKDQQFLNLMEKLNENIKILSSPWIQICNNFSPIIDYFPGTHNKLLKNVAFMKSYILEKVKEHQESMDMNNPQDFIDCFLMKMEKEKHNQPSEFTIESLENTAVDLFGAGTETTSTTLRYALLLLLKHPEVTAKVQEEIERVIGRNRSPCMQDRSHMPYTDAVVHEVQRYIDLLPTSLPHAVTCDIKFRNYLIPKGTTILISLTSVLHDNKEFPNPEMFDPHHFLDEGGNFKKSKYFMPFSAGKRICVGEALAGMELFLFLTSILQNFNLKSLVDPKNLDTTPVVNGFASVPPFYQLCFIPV

[10] = target: T3, Cytochrome P450 3A4 (Homo sapiens, UniProt P08684);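 note: CYP3A4 tested as one member of a cytochrome P450 panel screen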
T3 sequence (P08684 whole entry): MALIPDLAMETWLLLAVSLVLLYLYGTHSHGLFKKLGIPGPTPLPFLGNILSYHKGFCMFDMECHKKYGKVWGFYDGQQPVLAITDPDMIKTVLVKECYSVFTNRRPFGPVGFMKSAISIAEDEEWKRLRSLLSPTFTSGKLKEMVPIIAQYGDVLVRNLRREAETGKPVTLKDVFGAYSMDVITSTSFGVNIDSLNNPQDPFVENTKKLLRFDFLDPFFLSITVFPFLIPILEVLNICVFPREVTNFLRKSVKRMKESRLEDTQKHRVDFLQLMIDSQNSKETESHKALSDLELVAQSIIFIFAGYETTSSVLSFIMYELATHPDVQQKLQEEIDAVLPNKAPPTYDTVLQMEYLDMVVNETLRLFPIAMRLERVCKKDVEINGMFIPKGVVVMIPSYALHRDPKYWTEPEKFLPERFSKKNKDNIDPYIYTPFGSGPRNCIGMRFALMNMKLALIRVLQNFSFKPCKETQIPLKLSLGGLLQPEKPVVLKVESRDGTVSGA

[11] = target: Cytochrome P450 2D6 (Homo sapiens, UniProt P10635);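 note: CYP2D6 member of a cytochrome P450 panel assay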
Chain of Cytochrome P450 2D6 (P10635 whole entry): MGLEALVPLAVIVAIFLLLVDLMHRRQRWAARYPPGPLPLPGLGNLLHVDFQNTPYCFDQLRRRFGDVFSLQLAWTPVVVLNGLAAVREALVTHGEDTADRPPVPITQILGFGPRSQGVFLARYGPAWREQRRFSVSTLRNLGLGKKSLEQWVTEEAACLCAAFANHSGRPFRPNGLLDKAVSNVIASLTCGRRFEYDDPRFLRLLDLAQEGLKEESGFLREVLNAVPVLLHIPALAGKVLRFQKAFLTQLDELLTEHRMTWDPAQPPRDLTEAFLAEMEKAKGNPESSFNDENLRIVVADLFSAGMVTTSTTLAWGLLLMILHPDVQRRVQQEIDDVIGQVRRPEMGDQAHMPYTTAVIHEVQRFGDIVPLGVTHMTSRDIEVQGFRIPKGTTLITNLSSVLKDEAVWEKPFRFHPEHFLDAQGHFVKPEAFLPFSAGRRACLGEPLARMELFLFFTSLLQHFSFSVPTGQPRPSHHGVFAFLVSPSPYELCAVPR

[12] = test system: Streptococcus sp. 'group A'; test: Streptococcus pyogenes SK(-)GAS viability under kanamycin – luminescence, BacTiterGlo, confirmation, counter-screen for streptokinase expression inhibitor project, dose response (AID 1900); type: functional, organism-based
[13] = test system: Streptococcus; test: GAS UMAA2166 growth inhibition – luminescence, BacTiterGlo, counter-screen for streptokinase expression inhibitor project, dose response (AID 1915); type: functional, organism-based;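 note: potency for reduction of bacterial viability or growth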
[14] = target: T4, Streptokinase A (Streptococcus pyogenes serotype M1, UniProt P10520); test: viability-normalized secreted streptokinase activity reduction – plasminogen activation absorbance, OD405, dose response (AID 1914); type: functional, Streptococcus pyogenes M1 GAS;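 note: secreted streptokinase activity via plasminogen activation per viability signal from cell pellet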
T4 sequence (P10520 whole entry): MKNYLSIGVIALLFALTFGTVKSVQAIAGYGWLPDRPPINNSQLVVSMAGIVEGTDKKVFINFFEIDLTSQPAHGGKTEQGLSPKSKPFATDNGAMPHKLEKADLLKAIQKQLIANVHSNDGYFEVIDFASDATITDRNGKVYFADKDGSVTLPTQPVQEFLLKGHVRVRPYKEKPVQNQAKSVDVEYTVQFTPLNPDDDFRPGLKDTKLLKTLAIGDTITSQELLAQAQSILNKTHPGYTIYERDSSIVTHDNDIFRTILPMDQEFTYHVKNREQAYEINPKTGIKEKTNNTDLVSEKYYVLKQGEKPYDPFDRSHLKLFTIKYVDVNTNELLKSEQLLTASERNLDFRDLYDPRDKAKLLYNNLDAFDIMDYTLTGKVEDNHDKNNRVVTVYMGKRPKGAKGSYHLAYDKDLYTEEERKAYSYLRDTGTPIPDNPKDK

[15] = target: T5, Protein skinhead-1 (Caenorhabditis elegans, UniProt P34707); type: functional
T5 sequence (P34707 whole entry): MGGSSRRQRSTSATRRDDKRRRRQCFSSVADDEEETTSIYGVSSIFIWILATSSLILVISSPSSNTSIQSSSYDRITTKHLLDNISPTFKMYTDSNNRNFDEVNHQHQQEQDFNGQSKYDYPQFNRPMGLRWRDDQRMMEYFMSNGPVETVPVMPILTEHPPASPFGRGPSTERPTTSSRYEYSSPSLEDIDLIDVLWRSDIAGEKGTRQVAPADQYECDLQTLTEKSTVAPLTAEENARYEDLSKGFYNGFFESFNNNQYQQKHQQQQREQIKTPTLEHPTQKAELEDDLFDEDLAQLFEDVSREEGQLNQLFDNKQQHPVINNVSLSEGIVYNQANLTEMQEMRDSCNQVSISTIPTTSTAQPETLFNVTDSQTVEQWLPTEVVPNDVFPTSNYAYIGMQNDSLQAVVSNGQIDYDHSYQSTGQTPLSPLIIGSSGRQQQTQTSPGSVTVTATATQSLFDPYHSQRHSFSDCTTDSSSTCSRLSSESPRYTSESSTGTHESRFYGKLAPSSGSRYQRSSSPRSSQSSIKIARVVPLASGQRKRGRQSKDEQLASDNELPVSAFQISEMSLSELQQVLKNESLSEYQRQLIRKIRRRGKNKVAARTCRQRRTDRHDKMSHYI

[16] = target: Voltage-dependent T-type calcium channel subunit alpha-1H (Homo sapiens, UniProt O95180); type: functional;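 note: channel activity triggered by adding a high calcium stimulation buffer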
Chain of Voltage-dependent T-type calcium channel subunit alpha-1H (O95180 whole entry): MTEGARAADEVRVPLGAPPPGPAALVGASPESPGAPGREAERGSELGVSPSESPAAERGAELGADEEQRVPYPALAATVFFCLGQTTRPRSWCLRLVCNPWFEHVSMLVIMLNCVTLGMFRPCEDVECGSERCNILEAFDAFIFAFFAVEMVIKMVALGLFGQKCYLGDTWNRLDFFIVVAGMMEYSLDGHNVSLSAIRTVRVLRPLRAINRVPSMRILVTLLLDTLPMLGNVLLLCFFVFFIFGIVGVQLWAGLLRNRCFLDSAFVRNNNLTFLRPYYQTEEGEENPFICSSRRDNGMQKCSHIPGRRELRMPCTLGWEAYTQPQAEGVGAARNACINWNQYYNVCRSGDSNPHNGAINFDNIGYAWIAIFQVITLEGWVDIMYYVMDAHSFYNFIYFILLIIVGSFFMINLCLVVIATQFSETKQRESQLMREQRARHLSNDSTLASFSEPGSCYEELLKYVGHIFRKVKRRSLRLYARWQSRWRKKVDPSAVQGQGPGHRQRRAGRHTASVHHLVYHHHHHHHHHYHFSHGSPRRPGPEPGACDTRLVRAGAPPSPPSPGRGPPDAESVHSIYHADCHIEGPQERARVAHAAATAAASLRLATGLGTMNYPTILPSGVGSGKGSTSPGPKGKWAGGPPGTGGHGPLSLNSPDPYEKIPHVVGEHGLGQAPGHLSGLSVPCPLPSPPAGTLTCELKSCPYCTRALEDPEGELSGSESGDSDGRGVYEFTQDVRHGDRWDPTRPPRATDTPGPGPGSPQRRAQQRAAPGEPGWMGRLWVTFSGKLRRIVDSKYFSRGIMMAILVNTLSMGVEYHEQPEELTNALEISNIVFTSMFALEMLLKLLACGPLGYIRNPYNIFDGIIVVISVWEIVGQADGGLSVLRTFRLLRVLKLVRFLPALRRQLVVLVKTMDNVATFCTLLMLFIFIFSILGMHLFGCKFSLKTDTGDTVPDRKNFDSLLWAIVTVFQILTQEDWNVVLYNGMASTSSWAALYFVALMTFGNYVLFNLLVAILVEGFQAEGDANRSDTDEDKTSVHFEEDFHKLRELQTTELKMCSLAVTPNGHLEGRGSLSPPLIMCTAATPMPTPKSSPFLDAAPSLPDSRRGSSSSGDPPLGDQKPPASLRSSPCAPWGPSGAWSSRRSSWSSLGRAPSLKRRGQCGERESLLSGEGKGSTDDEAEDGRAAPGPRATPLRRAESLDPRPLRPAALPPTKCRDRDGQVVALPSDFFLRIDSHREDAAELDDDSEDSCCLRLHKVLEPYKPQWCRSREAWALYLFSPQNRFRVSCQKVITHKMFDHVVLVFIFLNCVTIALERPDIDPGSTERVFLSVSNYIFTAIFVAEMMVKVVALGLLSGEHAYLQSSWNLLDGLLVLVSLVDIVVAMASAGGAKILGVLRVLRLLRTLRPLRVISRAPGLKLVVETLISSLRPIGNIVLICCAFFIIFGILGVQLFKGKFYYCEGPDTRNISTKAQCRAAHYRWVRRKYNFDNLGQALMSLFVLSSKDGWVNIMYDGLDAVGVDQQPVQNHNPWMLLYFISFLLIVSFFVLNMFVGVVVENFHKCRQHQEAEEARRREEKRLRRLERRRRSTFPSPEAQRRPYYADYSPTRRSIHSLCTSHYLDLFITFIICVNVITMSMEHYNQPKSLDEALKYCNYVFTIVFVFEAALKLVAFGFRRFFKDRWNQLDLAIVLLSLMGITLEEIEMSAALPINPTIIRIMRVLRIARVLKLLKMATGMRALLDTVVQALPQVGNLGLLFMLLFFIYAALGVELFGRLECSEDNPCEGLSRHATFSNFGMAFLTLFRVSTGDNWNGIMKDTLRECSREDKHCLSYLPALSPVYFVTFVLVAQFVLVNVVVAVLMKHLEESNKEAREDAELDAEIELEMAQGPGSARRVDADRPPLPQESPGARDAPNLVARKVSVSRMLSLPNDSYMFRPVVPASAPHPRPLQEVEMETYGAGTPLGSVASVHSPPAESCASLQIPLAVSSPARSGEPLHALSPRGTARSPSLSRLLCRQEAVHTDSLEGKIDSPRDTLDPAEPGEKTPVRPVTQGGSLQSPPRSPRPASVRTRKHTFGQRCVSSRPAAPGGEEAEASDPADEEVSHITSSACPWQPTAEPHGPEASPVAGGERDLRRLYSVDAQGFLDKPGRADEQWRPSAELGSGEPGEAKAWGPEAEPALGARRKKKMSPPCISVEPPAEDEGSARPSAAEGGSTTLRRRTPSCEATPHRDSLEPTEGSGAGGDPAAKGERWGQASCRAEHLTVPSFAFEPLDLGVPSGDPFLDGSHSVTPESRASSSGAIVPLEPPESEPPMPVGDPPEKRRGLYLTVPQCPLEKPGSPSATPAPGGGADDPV

[17] = test system: INS1; test: INS-1E survival protection against cytokine death – cell-based, luminescence, retest, dose response (AID 449756); type: functional; conditions: Rattus norvegicus;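 note: cell death triggered by IL-1 beta plus TNF-alpha plus IFN-gamma mixture; protective hits raise ATP signal compared with cytokine alone wells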
[18] = viability of uninfected HEp-2 cells – cell-based, HTS, cytotoxicity control for RSV inhibitor project, dose response (AID 2410); type: functional; conditions: human respiratory syncytial virus
[19] = target: T6, Alkaline phosphatase, tissue-nonspecific isozyme (Homo sapiens, UniProt P05186); test: potency against alkaline phosphatase TNAP – biochemical, luminescent, dose response, SAR follow-up (AID 1056)
T6 sequence (P05186 whole entry): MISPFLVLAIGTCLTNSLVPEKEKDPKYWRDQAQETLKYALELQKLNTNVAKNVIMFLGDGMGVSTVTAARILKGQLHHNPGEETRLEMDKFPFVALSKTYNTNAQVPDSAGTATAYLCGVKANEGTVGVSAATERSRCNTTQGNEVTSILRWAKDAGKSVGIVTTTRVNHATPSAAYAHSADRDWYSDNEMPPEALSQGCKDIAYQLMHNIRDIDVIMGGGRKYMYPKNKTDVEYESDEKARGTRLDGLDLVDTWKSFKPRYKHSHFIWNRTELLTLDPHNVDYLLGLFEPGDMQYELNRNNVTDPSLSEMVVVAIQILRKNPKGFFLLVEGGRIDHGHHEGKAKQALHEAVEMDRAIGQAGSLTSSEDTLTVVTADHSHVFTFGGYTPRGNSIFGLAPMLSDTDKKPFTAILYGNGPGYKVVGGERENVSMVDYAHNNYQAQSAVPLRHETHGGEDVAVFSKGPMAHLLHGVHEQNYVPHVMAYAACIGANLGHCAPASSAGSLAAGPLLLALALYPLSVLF

[20] = target: T3, Cytochrome P450 3A4; remark: listed apart in the source

Chain of Protein Wnt-3a (P27467 whole entry): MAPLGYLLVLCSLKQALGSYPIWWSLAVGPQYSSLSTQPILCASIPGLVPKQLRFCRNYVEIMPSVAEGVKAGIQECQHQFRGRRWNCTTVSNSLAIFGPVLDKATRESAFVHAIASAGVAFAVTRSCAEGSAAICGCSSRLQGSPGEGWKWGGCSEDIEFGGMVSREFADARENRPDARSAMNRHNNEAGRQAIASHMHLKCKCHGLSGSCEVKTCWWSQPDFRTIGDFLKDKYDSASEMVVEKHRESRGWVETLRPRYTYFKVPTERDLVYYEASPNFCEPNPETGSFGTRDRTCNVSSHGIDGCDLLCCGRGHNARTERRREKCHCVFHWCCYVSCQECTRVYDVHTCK

Question: For CC(C)C[C@H]1CN=C(N(C)C)N1CCCCc1ccccc1, which IC50 [1] is on record?
Answer: 11.7 µM (active)

Question: For COc1cc(N=c2ssnc2Cl)cc(OC)c1, which IC50 [2] is on record?
Answer: 17.2 µM (active)

Question: And the IC50 [3]?
Answer: > 100 µM (inactive)

Question: With COc1cc(OC)c(C2=NOC(C(=O)NCc3cccs3)C2)cc1Cl (centres undefined) as the molecule, how does the EC50 [4] read?
Answer: 17.7 µM (inconclusive)

Question: What about the EC50 [5] of the same molecule?
Answer: > 150 µM (not active)

Question: And the EC50 [6]?
Answer: 63.7 µM (active)

Question: And the EC50 [7]?
Answer: 32 µM (active)

Question: And the EC50 [8]?
Answer: 108 µM (active)

Question: Which AC50 [9] does the source give for CC(C)(C)c1ccc(-c2c(C#N)c(N)nc3c2CCCC3)s1 here?
Answer: 7.08 µM (inconclusive)

Question: And the AC50 [10]?
Answer: inconclusive

Question: Which results are given for O=C(c1cnc(-c2ccccc2)s1)c1ccc(Cl)cc1Cl?
Answer: AC50 [11]: 22.4 µM (inconclusive); EC50 [12]: 16.2 µM (active); EC50 [13]: > 150 µM (not active); AC50 [10]: inconclusive; EC50 [14]: 33.7 µM (active)

Question: For CC1Cc2ccccc2N1C(=O)CSc1nc2ccccc2o1 (centres undefined), which IC50 [15] is on record?
Answer: > 100 µM (inactive)

Question: What about the EC50 [16] of the same molecule?
Answer: 9.56 µM (active)

Question: And the AC50 [17]?
Answer: > 260 µM (inactive)

Question: What about the CC50 [18] of the same molecule?
Answer: 26.9 µM (active)

Question: For O=C(Cn1cnnc1)c1ccc(O)c(O)c1, which IC50 [19] is on record?
Answer: > 100 µM (inactive)

Question: Which results are given for Cc1nnc(/N=c2\ssnc2Cl)o1?
Answer: IC50 [2]: 1.07 µM (active); IC50 [3]: > 100 µM (inactive)

Question: Which results are given for CC(=O)Nc1ccc(/C=N/Nc2nc3ccccc3[nH]2)cc1?
Answer: EC50 [4]: > 150 µM (inconclusive); EC50 [5]: > 150 µM (not active); EC50 [6]: 5.82 µM (active); EC50 [7]: > 150 µM (inconclusive); EC50 [8]: > 133 µM (inactive)

Question: For CCS(=O)(=O)N(C)[C@@H]1c2cc(C#N)ccc2OC(C)(C)[C@H]1O, which AC50 [20] is on record?
Answer: 15.8 µM (inconclusive)

Question: What about the AC50 [10] of the same molecule?
Answer: 15.8 µM (inconclusive)

From ChEMBL document CHEMBL1201862, “PubChem BioAssay data set” (2004)
